Experimental data taken from patent USRE39264E1, “Pharmaceutical combination” (Medivir AB, priority 1996, dated 2006).

Experiments:
[1] = test system: recurrent HSV infections; conditions: oral formulation, used after the appearance of symptoms; cited from earlier work
[2] = test system: Human HSV-1 (strain C42 or SC16); experiment: Experiment 3: combination creams of an antiviral and an anti-inflammatory substance in the animal model for recurrent herpes infection; assay type: in vivo, Balb/C mice; conditions: for ear thickness (% of placebo) / Lesion score (% of placebo): placebo set to 100%
Experimental: Human HSV-1 (2×10^5 plaque forming units, pfu, strain C42 or SC16) is inoculated into the neck of groups of 10-18 female in-bred Balb/C mice (16-18 g) as described by Kristofferson et al. (“Limited efficacy of inhibitors of herpes simplex virus DNA synthesis in murine models of recrudescent disease”, J. Gen. Virol. 1988; 69:1157-66). The development of zosteriform spread infection is then recorded by daily inspection of the occurrence of lesions on the pinna and swelling of the ear.
The same animal model with ten animals in each group was used.

[3] = test system: Human HSV-1 (strain C42 or SC16); experiment: Experiment 1: combination creams of foscarnet and an antiinflammatory substance in the animal model for recurrent herpes infection; assay type: in vivo, Balb/C mice; conditions: for Compounded value ± s.d., Ear thickness / Compounded value ± s.d., Lesion score: cream day 4-7 after infection three times daily, mean cumulative over days 4-12, 15 and 21, ATI day 2; for Compounded value ± s.d., Lesion score: score scale 0-4; for Ear thickness (% of placebo): cumulative ear thickness; for Ear thickness (% of placebo) / Lesion score (% of placebo): placebo set to 100%; for Lesion score (% of placebo): cumulative lesion score
Experimental: This transport will take approximately 3-4 days. […] Budesonide and lidocaine were selected for testing as examples of antiinflammatory compounds. The foscarnet cream Foscarnet Cream was prepared as described in Example 1. The cream base without drug was used as placebo. The cream base described above was also mixed with budesonide cream (0.025%, […]-Brocades, The Netherlands) to obtain suitable concentrations for treatment. […] Foscarnet, the two antiinflammatory substances, as well as the two combination creams were tested in the animal model described, with ten animals in each group. The respective cream was applied day 4-7 after infection three times daily.

[4] = test system: Human HSV-1 (strain C42 or SC16); experiment: Experiment 2: sequential test of foscarnet cream and an antiinflammatory cream in the animal model for recurrent herpes infection
Text: In the novel animal model, virus is inoculated in the neck of a mouse. The virus will then be transported through the nerves to the skin of the corresponding ear. This transport will take approximately 3-4 days. On day 2 the animals are given immune cells with reactivity against the infecting virus. Subsequently, when the virus arrives at the ear, the animal instantly mobilises an effective immune response against the virus, thus mimicking the clinical situation of a recurrent herpes infection.
The development of zosteriform spread infection is then recorded by daily inspection of the occurrence of lesions on the pinna and swelling of the ear.
The lesions are scored on a scale from 0 to 4 as follows: • 0: no lesions on the ear • 1: isolated zosteriform lesions on the ear • 2: mild ulceration of zosteriform lesions on the ear • 3: moderate ulceration of zosteriform lesions on the ear • 4: severe ulceration of zosteriform lesions on the ear
Swelling of the ear was assessed by measuring the thickness of the ears using an engineers micrometer, as described by Kristofferson et al. The titre of infectious virus in the ear was measured as described by Kristofferson et al, except that BHK (baby hamster kidney) cells were used in addition.
On day 2 after infection the animals are given adoptive transfer of immunity, ATI, against HSV-1 by intravenous injection of 2×10^7 lymph node cells into the tail. Said lymph node cells had been prepared by injecting HSV-1 (10^5 pfu, strain C42 or strain SC16) into the pinna of both ears of anaesthetisized female Balb/C mice (16-18 g). Seven days post infection the animals are sacrificed by cervical dislocation, the draining lymph nodes are removed, and a suspension of lymph node cells in phosphate buffered saline is prepared by means of a micro mesh.
On day 4 after the infection and for 4 days, a composition to be tested as to activity against recurrent herpes is distributed equally in an amount of approximately 25 mg of cream on each side of the ear, every 8 h.
In this experiment the animals were treated with two different formulations 2 hours apart. First the foscarnet cream was applied and 2 hours later the antiinflammatory formulation. This was repeated three times daily during the treatment period (day 4-7 after infection).
The following substances were tested: foscarnet (3%, Foscarnet Cream), budesonide (0.025%, Preferid®, Gist-Brocades, The Netherlands), hydrocortisone (1%, Hydrokortison kräm 1% ACO, Kabi Pharmacia AB, Sweden), lidocaine (5%, Xylocaine®, Astra AB) and ketoprofen (2.5%, Oruvail®, Rhone-Poulenc Rorer NS, Denmark)

[5] = systemic treatment, 50 mg/kg injected intra-peritoneally three times daily
[6] = topical cream three times daily days 4-7 after infection, ATI day 2

Row | SMILES | Mean cumulative value ± s.d., ear thickness [2, 6] | Mean cumulative value ± s.d., lesion score [2, 6] | Lesion score (% of placebo) ([2]; topical cream) | ear thickness (% of placebo) ([2]; topical cream) | Compounded value ± s.d., Ear thickness [3] | Compounded value ± s.d., Lesion score [3] | Ear thickness (% of placebo) [3] | Lesion score (% of placebo) [3] | other results
1 | Nc1nc2c(ncn2COCCO)c(=O)[nH]1 [Acyclovir] | 3.3 ± 0.3 mm | 8.0 ± 1.3 | 118 % of placebo | 100 % of placebo | – | – | – | – | Shortening of healing time [1]: no more than approximately one day; ear thickness (% of placebo) ([2]; systemic treatment, 50 mg/kg i.p. three times daily): 88 % of placebo; Mean cumulative value ± s.d., ear thickness [2, 5]: 3.0 ± 0.4 mm; Mean cumulative value ± s.d., lesion score [2, 5]: 7.0 ± 1.6
2 | CCCC1O[C@@H]2C[C@H]3[C@@H]4CCC5=CC(=O)C=C[C@]5(C)[C@H]4[C@@H](O)C[C@]3(C)[C@]2(C(=O)CO)O1 (stereo partly drawn) [Budesonide] | – | – | – | – | 2.1 ± 0.4 mm | 8.8 ± 1.8 | 58 % of placebo | 96 % of placebo | –
3 | O=C(O)P(=O)(O)O [Foscarnet, Trisodium phosphonoformate hexahydrate] | 3.3 ± 0.2 mm | 7.3 ± 1.2 | 107 % of placebo | 98 % of placebo | 3.0 ± 0.4 mm | 7.5 ± 2.5 | 82 % of placebo | 82 % of placebo | Virus titre in the ear ± s.d. on d 7 ([4]; ATI +, day 7 after infection): 3.25 ± 0.49 log10pfu/ml; Ear thickness (% of placebo) ([4]; cumulative ear thickness, placebo set to 100%): 88 % of placebo; Lesion score (% of placebo) ([4]; cumulative lesion score, placebo set to 100%): 84 % of placebo; Reduction of virus titre compared to placebo-treated animals ([4]; day 7 after infection): about tenfold; Mean cumulative value ± s.d., lesion score ([4]; foscarnet cream, 2 hours later antiinflammatory cream, three times daily day 4-7 after infection, ATI day 2): 4.8 ± 2.0; Mean cumulative value ± s.d., Ear thickness ([4]; foscarnet cream, 2 hours later antiinflammatory cream, three times daily day 4-7 after infection, measured as in Experiment 1): 2.8 ± 0.3; Effect on ear thickness ([4]; in comparison to placebo): small reduction; Effect on lesion score ([4]; in comparison to placebo): small reduction
4 | C[C@]12CCC(=O)C=C1CC[C@@H]1[C@@H]2[C@@H](O)C[C@@]2(C)[C@H]1CC[C@]2(O)C(=O)CO [Hydrocortisone] | 2.0 ± 0.2 mm | 6.0 ± 1.3 | 88 % of placebo | 61 % of placebo | – | – | – | – | –
5 | CCN(CC)CC(=O)Nc1c(C)cccc1C [Lidocaine] | – | – | – | – | 3.6 ± 0.3 mm | 9 ± 2 | 100 % of placebo | 98 % of placebo | Effect on ear thickness / inflammation ([3]; compared to placebo or single creams): no effect
6 | O=C(O)Cc1ccccc1Nc1c(Cl)cccc1Cl [diclofenac] | – | – | – | – | – | – | – | – | Side-effects of topical NSAID ([4]; topical gel, probably systemic absorption in too high amounts): toxic side-effects
7 | COc1ccc2c(c1)c(CC(=O)O)c(C)n2C(=O)c1ccc(Cl)cc1 [indomethacin] | – | – | – | – | – | – | – | – | Side-effects of topical NSAID ([4]; mouse, in vivo): toxic side-effects
